These results are taken from patent US20210393856A1, “COMPOSITIONS AND METHODS FOR REDUCING CALCIFICATION OF HEART VALVES” (Arizona Board of Regents on Behalf of the University of …, priority 2018, published 2021).

For data set [1], the system named is mouse VIC. Nature of the data set: Osteogenic markers after mouse VIC incubation with adenosine receptor agonists. Type of data set: cell-based. Conditions: mouse VIC / AVM cell cultures, FIG. 8.
For data set [2], the system named is AVM cultures. Nature of the data set: Effects of adenosine and adenosine receptor agonists on Runx2 expression in AVM cultures (qPCR). It is filed as cell-based, mouse. The conditions noted are these: for expression of Runx2 compared to control cultures: up to 5 days, FIG. 12. The source says: Expression was normalized to GAPDH. Average of 3 independent repeats with SEM.
Runx2 expression increases in calcifying AVM cells with time in culture. Cells treated with either 2′-MeCCPA (A1 agonist) or PSB0777 (A2a agonist) up to 5 days.
Adenosine levels were confirmed using HPLC.

Data set [3] relates to calcifying AVM cells. Nature of the data set: Runx2-II and Mgp in calcifying AVM cells in the presence of AMP. It is filed as cell-based, mouse. Conditions: FIG. 9.
For data set [4], the system named is AVM cell cultures. Nature of the data set: qPCR measurement of osteogenic marker expression by AVM cell cultures (ATP, PO4, CD73). It is filed as cell-based, mouse. The source says:
(§1) Over 5 days, exposure to this concentration of ATP is apoptotic as measured by the ratio of Bax/Bcl2, and this may contribute to calcification.
(In general: In qPCR the cycle at which signal appears reflects the starting amount.)

For data set [5], the system named is valve cell cultures. Nature of the data set: Apoptosis measured by the ratio of Bax/Bcl2 in valve cell cultures. It is filed as cell-based. Conditions: 100 μM, over 5 days.
Text: as §1

In data set [6] the test system is Alkaline phosphatase (ALP). Conditions: aortas incubated in osteogenic medium (Zukowska et al., 2017); cited from earlier work.
Data set [7] concerns calcifying AVM cell cultures. Nature of the data set: Runx2 isoform and osteogenic marker expression in calcifying AVM cell cultures with various treatments. It is filed as cell-based, mouse. As to the method: Embryonic precursors of valvular interstitial cells (VICs) calcify when grown as tissue culture aggregates similar to micromass cultures of limb cells developed by (Ahrens et al., 1977). A mouse fetal VIC cell line (AVM cells) obtained from the Immortamouse (gift of Kai Jiao, UAB) were used to investigate calcification. These cells express a temperature sensitive Large T antigen and are immortal at 33° C. and revert to a valvular phenotype at 37° C.
The cell and organ culture models described above are used to study valve calcification by staining and expression of osteogenic markers. […] Both Runx2 isoform levels are elevated concomitant with calcification in vitro and in situ. To explore the relationship between identified regulators and markers of the osteogenic program in calcifying valve tissues, Runx2 isoform and osteogenic marker expression was measured in calcifying AVM cell cultures with various treatments. AVM cultures were treated with siRNA against Runx2-II, noggin (inhibitor of BMP), an anti-TGFβ antibody (against all three isoforms), and DAPT (inhibitor of Notch signaling). […] These indicate that Runx2 is a fairly central player in this calcification process but that Runx2 expression, in these cultures, is independent of TGFβ and BMP signaling.
For cell culture, human and porcine VICs and human valvular endothelial cells (VECs) are used. VICs are expanded from initial culture and stored as aliquots in liquid nitrogen. All experiments are performed with low passage number cells and each cell source is profiled by the UA Genetics Core to confirm and maintain the identity of each cell line. A mouse AV valve mesenchymal cell line (AVM) was obtained from Kai Jao (U. of Ala., Birmingham). These cells were from mice containing a temperature sensitive large T transgene (Immorta-Mouse) and the cells were grown at 33° C. to obtain an immortal cell line (Peng et al., 2017). The cells revert to a cushion/valve phenotype at 37° C. The micromass cultures of Solursh and colleagues (Ahrens et al.,1977) were recapitulated to observe calcification in vitro in this cell system. Calcium deposits became visible by von Kossa staining by 5 days in culture and prominent by day 12 (FIG. 3). […] Marker expression is consistent with a valve calcification phenotype and supports a central role for Runx2 in calcification (FIG. 2). For organ culture of intact valves, fresh aortic pig valves are obtained from the meat lab in the College of Agriculture and incubated on the surface of collagen gels. Experiments compare responses in intact aortic valves and VIC and VEC cell lines. […] Though 19 purinergic receptors are identified in Table 1, those P2Y and P2X receptors that are not found in valve tissues are excluded from further analysis.

The subject of data set [8] is micromass cultures. Nature of the data set: Concentration of adenosine in culture media of micromass cultures after adding recombinant CD73. It is filed as cell-based. Set-up: concentration of adenosine in the culture media: unit not given here. The conditions noted are these: 1 μg/ml, approximately 100,000 cells in a dish.

For `C[C@@]1(O)[C@H](O)[C@@H](CO)O[C@H]1n1cnc2c(NC3CCCC3)nc(Cl)nc21` [2′-MeCCPA], the “induction of osteogenic markers (Runx2 and MGP)” value in data set [1] was “significant induction”. In addition, the “expression of Runx2 compared to control cultures” value in data set [2] (0.1 μM) is listed as “reduced”.
Regarding `Nc1ncnc2c1ncn2[C@@H]1O[C@H](COP(=O)(O)O)[C@@H](O)[C@H]1O` [AMP], in data set [3], the “Runx2-II and Mgp” value is recorded as “reduced”.
As for `Nc1ncnc2c1ncn2[C@@H]1O[C@H](COP(=O)(O)OP(=O)(O)OP(=O)(O)O)[C@@H](O)[C@H]1O` [ATP], the osteocalcin and osteopontin result in data set [4] (100 μM added every 12 hr, at 5 days) is on record as “large increase”. Besides, the “apoptosis as ratio of Bax/Bcl2” value in data set [5] is on record as “apoptotic”. Besides, the “Alkaline phosphatase (ALP) activity” value in data set [6] is “increased”.
For `C[C@H](NC(=O)Cc1cc(F)cc(F)c1)C(=O)N[C@H](C(=O)OC(C)(C)C)c1ccccc1` [DAPT, reference compound], in data set [7], the Runx2 expression result is given as “reduced Runx2 expression” and the “expression of other markers (Twist1, Cbfβ, MGP)” value is “upregulated the other markers”.
Take `O=P(O)(O)O` [PO4]: the osteogenic markers entry in data set [4] (added to culture media, at 12 days, FIG. 13) is recorded as “increases”.
As for `Nc1nc(SCCc2ccc(S(=O)(=O)O)cc2)nc2c1ncn2[C@@H]1O[C@H](CO)[C@@H](O)[C@H]1O` [PSB0777], the “induction of osteogenic markers (Runx2 and MGP)” value in data set [1] is “significant induction”. Besides, the “expression of Runx2 compared to control cultures” value in data set [2] (1 μM) was “reduced”.
Turning to `Nc1ncnc2c1ncn2[C@@H]1O[C@H](CO)[C@@H](O)[C@H]1O` [adenosine], the “Alkaline phosphatase (ALP) activity” value in data set [6] was “reduced”. Moreover, in data set [2] (AVM cultures at 0.35 μM, 3.5 μM and 50 μM adenosine, normalized to GAPDH, FIG. 11), the Runx2 expression result is “inhibited at an exposure consistent with the high affinity A1 receptor”.

B1: noggin: inhibitor of BMP (protein, UniProt Q13253 28-232, looked up)
Noggin: QHYLHIRPAPSDNLPLVDLIEHPDPIFDPKEKDLNETLLRSLLGGHYDPGFMATSPPEDRPGGGGGAAGGAEDLAELDQLLRQRPSGAMPSEIKGLEFSEGLAQGKKQRLSKKLRRKLQMWLWSQTFCPVLYAWNDLGSRFWPRYVKVGSCFSKRSCSVPEGMVCKPSKSVHLTVLRWRCQRRGGQRCGWIPIQYPIISECKCSC
For the molecule B1, in data set [7], the Runx2 expression entry is “little effect” and the “expression of other markers (Twist1, Cbfβ, MGP)” value is “lesser effects”.

B2: recombinant CD73: ecto-5′-nucleotidase, converts AMP to adenosine (protein, UniProt P21589 27-549, looked up)
5'-nucleotidase: WELTILHTNDVHSRLEQTSEDSSKCVNASRCMGGVARLFTKVQQIRRAEPNVLLLDAGDQYQGTIWFTVYKGAEVAHFMNALRYDAMALGNHEFDNGVEGLIEPLLKEAKFPILSANIKAKGPLASQISGLYLPYKVLPVGDEVVGIVGYTSKETPFLSNPGTNLVFEDEITALQPEVDKLKTLNVNKIIALGHSGFEMDKLIAQKVRGVDVVVGGHSNTFLYTGNPPSKEVPAGKYPFIVTSDDGRKVPVVQAYAFGKYLGYLKIEFDERGNVISSHGNPILLNSSIPEDPSIKADINKWRIKLDNYSTQELGKTIVYLDGSSQSCRFRECNMGNLICDAMINNNLRHTDEMFWNHVSMCILNGGGIRSPIDERNNGTITWENLAAVLPFGGTFDLVQLKGSTLKKAFEHSVHRYGQSTGEFLQVGGIHVVYDLSRKPGDRVVKLDVLCTKCRVPSYDPLKMDEVYKVILPNFLANGGDGFQMIKDELLRHDSGDQDINVVSTYISKMKVIYPAVEGRIKFS
Take B2: the “effects of exogenous ATP (osteogenic markers, apoptosis)” value in data set [4] (exogenous enzyme added with 100 μM ATP) is given as “reduced”. Moreover, in data set [8], the “increase of adenosine concentration in the culture media” value was determined as 5 fold. Further, the “concentration of adenosine in the culture media” value in data set [8] (from 1.7 without enzyme) is listed as 8.7.
